Test results as given in patent publication US20230372313A1, “METHODS FOR REDUCING GLYCOSPHINGOLIPID CONCENTRATION IN BRAIN TISSUE AND METHODS OF TREATMENT OF NEURODEGENERATIVE DISEASES INVOLVING THE SAME” (GENZYME CORPORATION, priority 2020, published 2023).

Columns and labels:
Type in all cases: in vivo, human
[1] = Safety and tolerability: adverse events in the treatment-emergent period, part 1 of phase 2 trial in PD patients carrying a GBA mutation
Source text: This clinical trial is a 3-year, phase 2, randomised, double-blinded, placebo-controlled, multicenter study of Compound 2 in participants with early-stage PD carrying a GBA mutation. The trial is divided into 2 consecutive parts: part 1 is a dose escalation study (described below) of safety, pharmacokinetics, and pharmacodynamics of 3 doses using 3 sequential cohorts; part 2 is an ongoing 2-arm study of efficacy and safety of Compound 2.
Participants were randomised to 3 doses of once-daily orally administered Compound 2 or placebo, in sequential cohort design, and were followed up to 36 weeks (52 weeks for Japanese participants). Participants in the low-dose group received 4 mg of Compound 2 as a once daily oral dose; participants in the mid-dose group received 8 mg of Compound 2 a once daily oral dose; and participants in the high-dose group received 15 mg of Compound 2 a once daily oral dose.
The primary outcome in part 1 of trial was an assessment of safety and tolerability of orally administered Compound 2 versus placebo through Week 4 (primary analysis period for each sequential cohort). In addition, safety assessments were recorded for every 4 weeks until completion. Safety was assessed by physical examination; neurological examination; clinical laboratory evaluations conducted at a central laboratory, including haematology, biochemistry, urinalysis, and serology tests; vital signs; assessment of AEs and concomitant medication; ophthalmological examination; and electrocardiogram. AEs, serious Aes, and AEs of special interest (AESI) were recorded throughout the study. Serious AEs were defined as fatal, or life threatening, requiring or prolonging inpatient hospitalisation, or disabling/incapacitating, congenital anomalies, or medically important events (e.g. malignancies or chronic neurodegenerative diseases). AESI included new or worsening lens opacities and cataracts (as assessed by ophthalmology evaluations at screening and at Weeks 4, 12, 28, 36 [Weeks 4, 12, 36, 52 for Japanese participants]), pregnancy events, increase of alanine aminotransferase, or symptomatic overdose with study drug.
During the study, 29 participants were randomised to Compound 2 (Japan, n=9; ROW, n=13) or placebo (n=3; n=4). Eight (89%) Japanese and 12 (92%) ROW Compound 2-treated participants experienced ≥1 adverse event (AE) versus 2 (67%) and 4 (100%) participants from the respective placebo groups. […] Two Compound 2-treated ROW participants discontinued due to AEs (confusional state and panic attack).

glucosylceramide (GL-1) = experiment: Plasma glucosylceramide (GL-1) levels, pharmacodynamics
Source text: Analyses were based on all available data from participants who enrolled in part 1 of the trial and were randomised to receive either Compound 2 or placebo for up to 52 weeks for Japanese participants and 36 weeks for the ROW population. As part 1 was an exploratory, dose-escalation study, the sample size was not based on a statistical power calculation. Participants included in the primary safety analyses were those who were randomized and received at least one dose of Compound 2 or placebo. A data monitoring committee was responsible for overseeing the safety of patients and the risk/benefit ratio throughout the study. Duration of exposure to Compound 2 was different among the doses, as per the sequential cohort design, with the low- and high-dose cohorts commencing the study first and last, respectively. For pharmacokinetics, plasma parameters were calculated using noncompartmental methods, from plasma Compound 2 concentrations obtained after single dose administration. AUC0-24 and AUC0-48 were calculated using the trapezoidal method over a predefined time period of 24 hours or 48 hours, respectively. CLss/F was calculated using the following equation: CLss/F=Dose/AUCτ, where τ is the dosing interval. For pharmacodynamics, percent reduction of plasma or CSF GL-1 from baseline was calculated as (value−baseline)/baseline×100. Formal statistical testing was not conducted on MDS-UPDRS scale assessments.
In exploratory analyses, Compound 2 pharmacodynamics in plasma and CSF were assessed by mean percent change in GL-1 levels from baseline through Week 4. GL-1 levels were assessed in plasma and CSF samples collected at the day of randomisation and Week 4, with plasma GL-1 levels also assessed at Week 2.
Concentrations of GL-1 in plasma and CSF were determined using a liquid chromatography tandem mass spectrometry method. Secondary pharmacokinetic outcomes were evaluated over a 4-week period of once-daily Compound 2 dosing (Table 7).

[2] = tested on: participants with early-stage PD carrying a GBA mutation; experiment: MDS-UPDRS (parts II and III) scores in OFF state; details: Combined Japan + ROW, all Compound 2 doses, N = 22, OFF state
Description: MDS-UPDRS (parts II [motor experiences of daily living; 13 items] and III [motor examination; 18 items]) scores are reported through Week 8. The MDS-UPDRS scale was assessed during the OFF state, with no PD medication taken for ≥12 hours prior.
The changes from baseline in MDS-UPDRS (parts II and III) scores at week 8 were assessed for participants in part 1 of the clinical study described in Example 2.

[3] = Japan, High 15 mg once daily oral, n = 3
[4] = Japan, Low 4 mg once daily oral, n = 3
[5] = Japan, Mid 8 mg once daily oral, n = 3
[6] = ROW, High 15 mg once daily oral, n = 4
[7] = ROW, Low 4 mg once daily oral, n = 4
[8] = ROW, Mid 8 mg once daily oral, n = 5

CC(C)(NC(=O)O[C@@H]1CN2CCC1CC2)c1csc(-c2ccc(F)cc2)n1 [Compound 2, (S)-quinuclidin-3-yl (2-(2-(4-fluorophenyl)thiazol-4-yl)propan-2-yl)carbamate]
Number of participants with AEs: Infections and infestations [1, 3]: 1 | Number of participants with AEs: Infections and infestations [1, 4]: 2 | Number of participants with AEs: Infections and infestations [1, 5]: 0 | Number of participants with AEs: Infections and infestations [1, 6]: 1 | Number of participants with AEs: Infections and infestations [1, 7]: 0 | Number of participants with AEs: Infections and infestations [1, 8]: 0 | serious AEs or deaths ([1]; all participants, part 1): no serious AEs or deaths occurred | participants who discontinued due to AEs (confusional state and panic attack) ([1]; human, in vivo): Two | Plasma GL-1, Week 2 (mean) (glucosylceramide (GL-1); [3]): 1.231 µg/mL | Plasma GL-1, Week 2, Change from baseline (%) (mean) (glucosylceramide (GL-1); [3]): −77.2% | Plasma GL-1, Week 2, Change from baseline (mean) (glucosylceramide (GL-1); [3]): -4.285 µg/mL | Plasma GL-1, Week 4 (mean) (glucosylceramide (GL-1); [3]): 1.149 µg/mL | Plasma GL-1, Week 4, Change from baseline (%) (mean) (glucosylceramide (GL-1); [3]): −79.3% | Plasma GL-1, Week 4, Change from baseline (mean) (glucosylceramide (GL-1); [3]): -4.368 µg/mL | Plasma GL-1, Week 2 (mean) (glucosylceramide (GL-1); [4]): 2.230 µg/mL | Plasma GL-1, Week 2, Change from baseline (%) (mean) (glucosylceramide (GL-1); [4]): −63.6% | Plasma GL-1, Week 2, Change from baseline (mean) (glucosylceramide (GL-1); [4]): -3.797 µg/mL | Plasma GL-1, Week 4 (mean) (glucosylceramide (GL-1); [4]): 2.097 µg/mL | Plasma GL-1, Week 4, Change from baseline (%) (mean) (glucosylceramide (GL-1); [4]): −66.1% | Plasma GL-1, Week 4, Change from baseline (mean) (glucosylceramide (GL-1); [4]): -3.930 µg/mL | Plasma GL-1, Week 2 (mean) (glucosylceramide (GL-1); [5]): 1.507 µg/mL | Plasma GL-1, Week 2, Change from baseline (%) (mean) (glucosylceramide (GL-1); [5]): −67.5% | Plasma GL-1, Week 2, Change from baseline (mean) (glucosylceramide (GL-1); [5]): -3.133 µg/mL | Plasma GL-1, Week 4 (mean) (glucosylceramide (GL-1); [5]): 1.340 µg/mL | Plasma GL-1, Week 4, Change from baseline (%) (mean) (glucosylceramide (GL-1); [5]): −70.7% | Plasma GL-1, Week 4, Change from baseline (mean) (glucosylceramide (GL-1); [5]): -3.300 µg/mL | mean reduction in plasma GL-1 at Week 4 (glucosylceramide (GL-1); Japanese cohort, high-dose 15 mg): 79.3% | mean reduction in plasma GL-1 at Week 4 (glucosylceramide (GL-1); Japanese cohort, low-dose 4 mg): 66.1% | mean reduction in plasma GL-1 at Week 4 (glucosylceramide (GL-1); Japanese cohort, medium-dose 8 mg): 70.7% | mean reduction in plasma GL-1 at Week 4 (glucosylceramide (GL-1); ROW participants, high-dose 15 mg): 77.7% | mean reduction in plasma GL-1 at Week 4 (glucosylceramide (GL-1); ROW participants, low-dose 4 mg): 59.0% | mean reduction in plasma GL-1 at Week 4 (glucosylceramide (GL-1); ROW participants, medium-dose 8 mg): 71.0% | Plasma GL-1, Week 2 (mean) (glucosylceramide (GL-1); [6]): 1.469 µg/mL | Plasma GL-1, Week 2, Change from baseline (%) (mean) (glucosylceramide (GL-1); [6]): −73.9% | Plasma GL-1, Week 2, Change from baseline (mean) (glucosylceramide (GL-1); [6]): -4.119 µg/mL | Plasma GL-1, Week 4 (mean) (glucosylceramide (GL-1); [6]): 1.253 µg/mL | Plasma GL-1, Week 4, Change from baseline (%) (mean) (glucosylceramide (GL-1); [6]): −77.7% | Plasma GL-1, Week 4, Change from baseline (mean) (glucosylceramide (GL-1); [6]): -4.335 µg/mL | Plasma GL-1, Week 2 (mean) (glucosylceramide (GL-1); [7]): 2.340 µg/mL | Plasma GL-1, Week 2, Change from baseline (%) (mean) (glucosylceramide (GL-1); [7]): −54.3% | Plasma GL-1, Week 2, Change from baseline (mean) (glucosylceramide (GL-1); [7]): -2.815 µg/mL | Plasma GL-1, Week 4 (mean) (glucosylceramide (GL-1); [7]): 2.093 µg/mL | Plasma GL-1, Week 4, Change from baseline (%) (mean) (glucosylceramide (GL-1); [7]): −59.0% | Plasma GL-1, Week 4, Change from baseline (mean) (glucosylceramide (GL-1); [7]): -3.063 µg/mL | Plasma GL-1, Week 2 (mean) (glucosylceramide (GL-1); [8]): 1.644 µg/mL | Plasma GL-1, Week 2, Change from baseline (%) (mean) (glucosylceramide (GL-1); [8]): −69.9% | Plasma GL-1, Week 2, Change from baseline (mean) (glucosylceramide (GL-1); [8]): -3.830 µg/mL | Plasma GL-1, Week 4 (mean) (glucosylceramide (GL-1); [8]): 1.578 µg/mL | Plasma GL-1, Week 4, Change from baseline (%) (mean) (glucosylceramide (GL-1); [8]): −71.0% | Plasma GL-1, Week 4, Change from baseline (mean) (glucosylceramide (GL-1); [8]): -3.896 µg/mL | decrease of plasma GL-1 levels from baseline versus dose (glucosylceramide (GL-1); over 4 weeks): dose-dependent manner | MDS-UPDRS (part II + III) score, Change from baseline at week 8 (mean) [2]: −2.9
